# From ChEMBL document CHEMBL3875166, “Synthesis and biological evaluation of new 6-hydroxypyridazinone benzisoxazoles: Potential multi-receptor-targeting atypical antipsychotics” (Eur J Med Chem, 2016)
# How the values were obtained:
# D(2) dopamine receptor = D(2) dopamine receptor (Rattus norvegicus, UniProt P61169); assay: Displacement of [3H]spiperone from dopamine D2 receptor in Sprague-Dawley rat striatum incubated for 30 mins by liquid scintillation counting analysis
# [1] = molecular target: T1, 5-hydroxytryptamine receptor 1A (Rattus norvegicus, UniProt P19327); assay: Displacement of [3H]8-OH-DPAT from 5-HT1A receptor in Sprague-Dawley rat cerebral cortex incubated for 30 mins by liquid scintillation counting analysis
# T1 sequence (P19327 whole entry): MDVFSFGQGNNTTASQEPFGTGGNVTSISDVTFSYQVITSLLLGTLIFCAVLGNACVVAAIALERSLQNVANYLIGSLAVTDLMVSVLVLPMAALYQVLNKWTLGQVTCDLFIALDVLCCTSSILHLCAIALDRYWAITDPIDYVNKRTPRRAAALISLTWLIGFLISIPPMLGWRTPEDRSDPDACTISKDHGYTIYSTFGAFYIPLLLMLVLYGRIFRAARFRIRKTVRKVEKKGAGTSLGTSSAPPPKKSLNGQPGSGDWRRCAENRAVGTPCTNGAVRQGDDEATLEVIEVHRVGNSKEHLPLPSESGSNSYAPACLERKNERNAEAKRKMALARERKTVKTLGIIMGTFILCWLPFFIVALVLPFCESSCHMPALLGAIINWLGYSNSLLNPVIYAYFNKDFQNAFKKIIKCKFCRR
# [2] = molecular target: 5-hydroxytryptamine receptor 2A (Rattus norvegicus, UniProt P14842); assay: Displacement of [3H] ketanserin from 5-HT2A receptor in Sprague-Dawley rat cerebral cortex incubated for 30 mins by liquid scintillation counting analysis
# 5-hydroxytryptamine receptor 2A, sequence (P14842 whole entry): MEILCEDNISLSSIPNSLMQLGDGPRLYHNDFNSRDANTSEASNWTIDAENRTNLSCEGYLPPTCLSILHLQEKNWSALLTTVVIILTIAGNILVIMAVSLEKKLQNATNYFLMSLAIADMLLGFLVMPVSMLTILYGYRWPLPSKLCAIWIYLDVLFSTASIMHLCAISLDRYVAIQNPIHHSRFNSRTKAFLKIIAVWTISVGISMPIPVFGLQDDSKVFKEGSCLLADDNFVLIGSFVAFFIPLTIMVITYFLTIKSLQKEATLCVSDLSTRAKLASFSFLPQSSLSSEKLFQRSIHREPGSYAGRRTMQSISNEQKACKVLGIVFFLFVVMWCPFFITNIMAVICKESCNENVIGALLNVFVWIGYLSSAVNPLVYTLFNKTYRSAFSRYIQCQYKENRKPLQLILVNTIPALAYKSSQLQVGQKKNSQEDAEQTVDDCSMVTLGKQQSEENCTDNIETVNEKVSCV
# D(2) dopamine receptor, sequence (P61169 whole entry): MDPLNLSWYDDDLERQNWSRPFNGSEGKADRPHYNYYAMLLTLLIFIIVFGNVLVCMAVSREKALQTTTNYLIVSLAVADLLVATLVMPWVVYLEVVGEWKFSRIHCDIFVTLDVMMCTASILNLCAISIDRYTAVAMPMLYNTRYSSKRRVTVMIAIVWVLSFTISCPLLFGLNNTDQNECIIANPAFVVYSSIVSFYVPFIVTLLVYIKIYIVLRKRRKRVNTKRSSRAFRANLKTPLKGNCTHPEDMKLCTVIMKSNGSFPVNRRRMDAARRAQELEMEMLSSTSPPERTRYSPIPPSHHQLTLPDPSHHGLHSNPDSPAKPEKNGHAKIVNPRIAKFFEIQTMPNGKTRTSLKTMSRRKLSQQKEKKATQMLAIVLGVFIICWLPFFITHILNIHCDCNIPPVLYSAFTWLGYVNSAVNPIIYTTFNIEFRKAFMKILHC
Compound,Ki (D(2) dopamine receptor),Ki [1],Ki [2]
Cc1c(OCCCN2CCC(c3noc4cc(F)ccc34)CC2)nn(-c2ccc(Cl)c(Cl)c2)c(=O)c1C,38.3 nM,121 nM,91.3 nM
O=c1ccc(OCCCN2CCC(c3noc4cc(F)ccc34)CC2)nn1-c1ccc(Cl)cc1,28.1 nM,89 nM,12.3 nM
O=c1ccc(OCCCN2CCN(c3ccccn3)CC2)nn1-c1ccc(Cl)c(Cl)c1,> 10000 nM,157 nM,143 nM
Cc1cccc(N2CCN(CCCOc3ccc(=O)n(-c4ccc(Cl)c(Cl)c4)n3)CC2)c1C,> 10000 nM,5530 nM,81.2 nM
O=c1ccc(OCCCN2CCN(c3ccc(F)cc3)CC2)nn1-c1ccc(Cl)c(Cl)c1,953 nM,55.4 nM,64.5 nM
O=c1ccc(OCCCCCN2CCC(c3noc4cc(F)ccc34)CC2)nn1-c1ccc(Cl)c(Cl)c1,40.3 nM,326 nM,25.3 nM
O=c1ccc(OCCCN2CCC(c3noc4cc(F)ccc34)CC2)nn1-c1ccc(F)c(Cl)c1,45.3 nM,89 nM,12.3 nM
Cc1ccc(-n2nc(OCCCN3CCC(c4noc5cc(F)ccc45)CC3)ccc2=O)cc1,33.1 nM,34.2 nM,55.4 nM
COc1ccccc1N1CCN(CCCOc2ccc(=O)n(-c3ccc(Cl)c(Cl)c3)n2)CC1,524 nM,56.2 nM,242 nM
O=c1c2ccccc2c(OCCCN2CCC(c3noc4cc(F)ccc34)CC2)nn1-c1ccc(Cl)c(Cl)c1,43.7 nM,333 nM,83.9 nM
O=c1ccc(OCCCN2CCN(c3ncccn3)CC2)nn1-c1ccc(Cl)c(Cl)c1,914 nM,167 nM,1140 nM
O=c1ccc(OCCCN2CCC(c3noc4cc(F)ccc34)CC2)nn1-c1ccc(F)c(F)c1,38.5 nM,43.5 nM,3.2 nM
O=c1c2c(c(OCCCN3CCC(c4noc5cc(F)ccc45)CC3)nn1-c1ccc(Cl)c(Cl)c1)CCCC2,41.8 nM,224 nM,89.6 nM
O=c1ccc(OCCCN2CCC(c3noc4cc(F)ccc34)CC2)nn1-c1cc(Cl)cc(Cl)c1,38.1 nM,129 nM,9.3 nM
O=c1ccc(OCCCN2CCC(c3noc4cc(F)ccc34)CC2)nn1-c1ccccc1,45.5 nM,61.3 nM,131 nM
O=c1ccc(OCCCCN2CCC(c3noc4cc(F)ccc34)CC2)nn1-c1ccc(Cl)c(Cl)c1,26.7 nM,117 nM,34.7 nM
O=c1ccc(OCCCN2CCC(c3noc4cc(F)ccc34)CC2)nn1-c1ccc2ccccc2c1,16.2 nM,15.9 nM,21.3 nM
O=c1ccc(OCCCN2CCN(c3ccccc3F)CC2)nn1-c1ccc(Cl)c(Cl)c1,1200 nM,56.5 nM,69.5 nM
O=c1ccc(OCCCN2CCC(c3noc4cc(F)ccc34)CC2)nn1-c1cccc(Cl)c1,41.1 nM,183 nM,6 nM

Compound,Ki (D(2) dopamine receptor),Ki [1],Ki [2]
O=c1ccc(OCCCN2CCN(c3csc4ccccc34)CC2)nn1-c1ccc(Cl)c(Cl)c1,648 nM,984 nM,81.2 nM
O=c1ccc(OCCCN2CCN(Cc3ccccc3)CC2)nn1-c1ccc(Cl)c(Cl)c1,> 10000 nM,213 nM,595 nM
COc1ccc(N2CCN(CCCOc3ccc(=O)n(-c4ccc(Cl)c(Cl)c4)n3)CC2)cc1,845 nM,57.3 nM,543 nM
O=c1ccc(OCCCN2CCC(c3noc4cc(F)ccc34)CC2)nn1-c1ccccc1Cl,38.5 nM,78 nM,10.3 nM
O=c1ccc(OCCCN2CCC(c3noc4cc(F)ccc34)CC2)nn1-c1ccc(F)cc1F,174 nM,88.4 nM,0.5 nM
NC(=O)c1ccc2occ(N3CCN(CCCOc4ccc(=O)n(-c5ccc(Cl)c(Cl)c5)n4)CC3)c2c1,379 nM,64.8 nM,605 nM
O=c1ccc(OCCCN2CCC(c3noc4cc(F)ccc34)CC2)nn1-c1ccc(F)cc1,10.8 nM,52.8 nM,25.9 nM
O=c1ccc(OCCCN2CCN(c3ccccc3Cl)CC2)nn1-c1ccc(Cl)c(Cl)c1,808 nM,1110 nM,120 nM
O=c1ccc(OCCCN2CCC(c3noc4cc(F)ccc34)CC2)nn1-c1ccc(Cl)c(Cl)c1,7.8 nM,25 nM,21.7 nM
O=c1ccc(OCCCN2CCC(c3noc4cc(F)ccc34)CC2)nn1-c1cc(F)cc(F)c1,35.4 nM,38.1 nM,2.3 nM
O=C(c1ccc(F)cc1)C1CCN(CCCOc2ccc(=O)n(-c3ccc(Cl)c(Cl)c3)n2)CC1,179 nM,,13.8 nM
O=c1ccc(OCCCN2CCN(c3nsc4ccccc34)CC2)nn1-c1ccc(Cl)c(Cl)c1,595 nM,898 nM,75.1 nM
O=c1ccc(OCCCN2CCC(c3c[nH]c4ccccc34)CC2)nn1-c1ccc(Cl)c(Cl)c1,499 nM,1250 nM,74.5 nM
O=c1ccc(OCCCN2CCC(c3nc4ccccc4s3)CC2)nn1-c1ccc(Cl)c(Cl)c1,> 10000 nM,> 10000 nM,107 nM
O=c1ccc(OCCCN2CCN(c3ccccc3)CC2)nn1-c1ccc(Cl)c(Cl)c1,1320 nM,48.1 nM,359 nM
O=c1ccc(OCCCN2CCN(c3cccc(C(F)(F)F)c3)CC2)nn1-c1ccc(Cl)c(Cl)c1,916 nM,103 nM,99.2 nM
O=c1ccc(OCCCN2CCC(c3noc4cc(F)ccc34)CC2)nn1-c1ccc(Cl)cc1Cl,0.4 nM,191 nM,0.4 nM
O=c1ccc(OCCCN2CCN(c3cccc(Cl)c3Cl)CC2)nn1-c1ccc(Cl)c(Cl)c1,777 nM,624 nM,627 nM
